Test results as given in ChEMBL document CHEMBL3885861, “Open TG-GATES”.

Species: Rattus norvegicus
Assay: Open TG-GATES - Regimen: Daily Repeat
Format: toxicity, organism-based, Sprague-Dawley
Parameters: regimen Daily Repeat, gender Male, age 6 weeks
Conditions: in vivo, po, route gavage; for APTT / Bas / Eos / Fbg / Hb / Ht / Lym / MCH / MCHC / MCV / Mono / Neu / PT / Plat / RBC / Ret / WBC: tissue Blood; for KIDNEY_L / KIDNEY_R / KIDNEY_TOTAL: tissue Kidney; for LIVER: tissue Liver; for A/G / ALP / ALT / AST / BUN / CRE / Ca / Cl / DBIL / GLC / IP / K / LDH / Na / PL / RALB / TBIL / TC / TG / TP / gamma-GTP: tissue Plasma
[1] = 0 mg/kg, 72 h, dose level Control, time 3 day
[2] = 0 mg/kg, […], dose level Control, time 7 day
[3] = 0 mg/kg, […], dose level Control, time 14 day
[4] = 0 mg/kg, […], dose level Control, time 28 day
[5] = 100 mg/kg, 72 h, dose level Low, time 3 day
[6] = 100 mg/kg, […], dose level Low, time 7 day
[7] = 100 mg/kg, […], dose level Low, time 14 day
[8] = 100 mg/kg, […], dose level Low, time 28 day

CC(S)C(=O)NCC(=O)O (centres undefined) [TIOPRONIN]
TERMINAL_BW [1]: 222.4 g
APTT [1]: 22.6 s
Bas [1]: 0%
Eos [1]: 1%
Fbg [1]: 300.2 mg/dL
Hb [1]: 13.5 g/dL
Ht [1]: 40.8%
Lym [1]: 81.6%
MCH [1]: 20.9 pg
MCHC [1]: 33.1%
MCV [1]: 63 fL
Mono [1]: 2.6%
Neu [1]: 14.2%
PT [1]: 15.7 s
Plat [1]: 112.4 x10_4/uL
RBC [1]: 647.2 x10_4/ul
Ret [1]: 6.8%
WBC [1]: 142.5 x10_2/uL
KIDNEY_L [1]: 1 g
KIDNEY_R [1]: 1 g
KIDNEY_TOTAL [1]: 2 g
LIVER [1]: 10.5 g
A/G [1]: 1.1
ALP [1]: 1395.4 IU/L
ALT [1]: 46.2 IU/L
AST [1]: 73.8 IU/L
BUN [1]: 17.4 mg/dL
CRE [1]: 0.2 mg/dL
Ca [1]: 10.5 mg/dL
Cl [1]: 106 meq/L
DBIL [1]: 0 mg/dL
GLC [1]: 202 mg/dL
IP [1]: 7.2 mg/dL
K [1]: 4.3 meq/L
LDH [1]: 188 IU/L
Na [1]: 140.8 meq/L
PL [1]: 137.6 mg/dL
RALB [1]: 2.9 g/dL
TBIL [1]: 0.004 mg/dL
TC [1]: 75 mg/dL
TG [1]: 86.6 mg/dL
TP [1]: 5.5 g/dL
gamma-GTP [1]: 1.6 IU/L
TERMINAL_BW [2]: 250.2 g
TERMINAL_BW [3]: 315.5 g
TERMINAL_BW [4]: 385.3 g
APTT [2]: 21.4 s
Bas [2]: 0%
Eos [2]: 0.8%
Fbg [2]: 311.2 mg/dL
Hb [2]: 13.8 g/dL
Ht [2]: 40.6%
Lym [2]: 83%
MCH [2]: 20.7 pg
MCHC [2]: 33.9%
MCV [2]: 61 fL
Mono [2]: 2%
Neu [2]: 13.4%
PT [2]: 15.4 s
Plat [2]: 118.9 x10_4/uL
RBC [2]: 667 x10_4/ul
Ret [2]: 5.6%
WBC [2]: 124.9 x10_2/uL
APTT [3]: 22.9 s
Bas [3]: 0%
Eos [3]: 1%
Fbg [3]: 299.2 mg/dL
Hb [3]: 14.1 g/dL
Ht [3]: 40.4%
Lym [3]: 82.6%
MCH [3]: 20.5 pg
MCHC [3]: 34.8%
MCV [3]: 58.9 fL
Mono [3]: 2.2%
Neu [3]: 14%
PT [3]: 15.6 s
Plat [3]: 118.7 x10_4/uL
RBC [3]: 686.8 x10_4/ul
Ret [3]: 5.3%
WBC [3]: 128.8 x10_2/uL
APTT [4]: 24.5 s
Bas [4]: 0%
Eos [4]: 1%
Fbg [4]: 305.6 mg/dL
Hb [4]: 15.3 g/dL
Ht [4]: 43.2%
Lym [4]: 81.8%
MCH [4]: 19.6 pg
MCHC [4]: 35.3%
MCV [4]: 55.5 fL
Mono [4]: 1.8%
Neu [4]: 14.2%
PT [4]: 16 s
Plat [4]: 91.2 x10_4/uL
RBC [4]: 778.2 x10_4/ul
Ret [4]: 2.8%
WBC [4]: 114.1 x10_2/uL
KIDNEY_L [2]: 1.1 g
KIDNEY_R [2]: 1.1 g
KIDNEY_TOTAL [2]: 2.2 g
KIDNEY_L [3]: 1.2 g
KIDNEY_R [3]: 1.2 g
KIDNEY_TOTAL [3]: 2.4 g
KIDNEY_L [4]: 1.3 g
KIDNEY_R [4]: 1.4 g
KIDNEY_TOTAL [4]: 2.7 g
LIVER [2]: 11.5 g
LIVER [3]: 13.7 g
LIVER [4]: 15.9 g
A/G [2]: 1.2
ALP [2]: 1704.2 IU/L
ALT [2]: 37.4 IU/L
AST [2]: 68.6 IU/L
BUN [2]: 18.8 mg/dL
CRE [2]: 0.2 mg/dL
Ca [2]: 10.7 mg/dL
Cl [2]: 107.2 meq/L
DBIL [2]: 0 mg/dL
GLC [2]: 191.8 mg/dL
IP [2]: 7.1 mg/dL
K [2]: 4.5 meq/L
LDH [2]: 146.4 IU/L
Na [2]: 141.6 meq/L
PL [2]: 158.6 mg/dL
RALB [2]: 3 g/dL
TBIL [2]: 0.004 mg/dL
TC [2]: 83.2 mg/dL
TG [2]: 107.2 mg/dL
TP [2]: 5.4 g/dL
gamma-GTP [2]: 1.8 IU/L
A/G [3]: 1.3
ALP [3]: 1485.6 IU/L
ALT [3]: 37 IU/L
AST [3]: 63.4 IU/L
BUN [3]: 19 mg/dL
CRE [3]: 0.2 mg/dL
Ca [3]: 10.3 mg/dL
Cl [3]: 105 meq/L
DBIL [3]: 0 mg/dL
GLC [3]: 205.8 mg/dL
IP [3]: 6.9 mg/dL
K [3]: 4.5 meq/L
LDH [3]: 157.8 IU/L
Na [3]: 139.2 meq/L
PL [3]: 135.6 mg/dL
RALB [3]: 3.1 g/dL
TBIL [3]: 0.006 mg/dL
TC [3]: 63.6 mg/dL
TG [3]: 135.6 mg/dL
TP [3]: 5.6 g/dL
gamma-GTP [3]: 2.6 IU/L
A/G [4]: 1.2
ALP [4]: 1102.4 IU/L
ALT [4]: 35 IU/L
AST [4]: 61.4 IU/L
BUN [4]: 19.2 mg/dL
CRE [4]: 0.2 mg/dL
Ca [4]: 10.8 mg/dL
Cl [4]: 106.8 meq/L
DBIL [4]: 0 mg/dL
GLC [4]: 202.6 mg/dL
IP [4]: 6.7 mg/dL
K [4]: 4.1 meq/L
LDH [4]: 152.6 IU/L
Na [4]: 143.2 meq/L
PL [4]: 151.4 mg/dL
RALB [4]: 3.3 g/dL
TBIL [4]: 0.01 mg/dL
TC [4]: 78.2 mg/dL
TG [4]: 135.4 mg/dL
TP [4]: 5.9 g/dL
gamma-GTP [4]: 2 IU/L
TERMINAL_BW [5]: 228.4 g
APTT [5]: 22 s
Bas [5]: 0%
Eos [5]: 1%
Fbg [5]: 299.8 mg/dL
Hb [5]: 13 g/dL
Ht [5]: 39.1%
Lym [5]: 77.8%
MCH [5]: 19.9 pg
MCHC [5]: 33.2%
MCV [5]: 60.1 fL
Mono [5]: 2.8%
Neu [5]: 17.8%
PT [5]: 15.6 s
Plat [5]: 120.9 x10_4/uL
RBC [5]: 652 x10_4/ul
Ret [5]: 6.7%
WBC [5]: 105.6 x10_2/uL
KIDNEY_L [5]: 1 g
KIDNEY_R [5]: 1 g
KIDNEY_TOTAL [5]: 2 g
LIVER [5]: 10.8 g
A/G [5]: 1.2
ALP [5]: 1580 IU/L
ALT [5]: 43.6 IU/L
AST [5]: 73.6 IU/L
BUN [5]: 17 mg/dL
CRE [5]: 0.2 mg/dL
Ca [5]: 10.6 mg/dL
Cl [5]: 106.4 meq/L
DBIL [5]: 0 mg/dL
GLC [5]: 189.4 mg/dL
IP [5]: 7.4 mg/dL
K [5]: 4.4 meq/L
LDH [5]: 165.2 IU/L
Na [5]: 140.8 meq/L
PL [5]: 139.8 mg/dL
RALB [5]: 3.1 g/dL
TBIL [5]: 0.008 mg/dL
TC [5]: 76.6 mg/dL
TG [5]: 107.2 mg/dL
TP [5]: 5.6 g/dL
gamma-GTP [5]: 1.6 IU/L
TERMINAL_BW [6]: 255.1 g
TERMINAL_BW [7]: 321.9 g
TERMINAL_BW [8]: 376.7 g
APTT [6]: 22.4 s
Bas [6]: 0%
Eos [6]: 0.8%
Fbg [6]: 305.8 mg/dL
Hb [6]: 13.5 g/dL
Ht [6]: 39.7%
Lym [6]: 79.2%
MCH [6]: 20.9 pg
MCHC [6]: 34.1%
MCV [6]: 61.4 fL
Mono [6]: 2.4%
Neu [6]: 16.4%
PT [6]: 15.8 s
Plat [6]: 125.6 x10_4/uL
RBC [6]: 647 x10_4/ul
Ret [6]: 6.1%
WBC [6]: 109.7 x10_2/uL
APTT [7]: 24.5 s
Bas [7]: 0%
Eos [7]: 1%
Fbg [7]: 297 mg/dL
Hb [7]: 14.3 g/dL
Ht [7]: 41.1%
Lym [7]: 80.2%
MCH [7]: 20.8 pg
MCHC [7]: 34.8%
MCV [7]: 59.9 fL
Mono [7]: 2.4%
Neu [7]: 15.4%
PT [7]: 15.6 s
Plat [7]: 116.6 x10_4/uL
RBC [7]: 686.2 x10_4/ul
Ret [7]: 5.6%
WBC [7]: 147.7 x10_2/uL
APTT [8]: 25.2 s
Bas [8]: 0%
Eos [8]: 1.2%
Fbg [8]: 325.8 mg/dL
Hb [8]: 15.2 g/dL
Ht [8]: 43.1%
Lym [8]: 80.6%
MCH [8]: 19.6 pg
MCHC [8]: 35.2%
MCV [8]: 55.6 fL
Mono [8]: 2.6%
Neu [8]: 14.6%
PT [8]: 15.9 s
Plat [8]: 94 x10_4/uL
RBC [8]: 775.4 x10_4/ul
Ret [8]: 2.8%
WBC [8]: 122.4 x10_2/uL
KIDNEY_L [6]: 1.1 g
KIDNEY_R [6]: 1.1 g
KIDNEY_TOTAL [6]: 2.2 g
KIDNEY_L [7]: 1.2 g
KIDNEY_R [7]: 1.3 g
KIDNEY_TOTAL [7]: 2.5 g
KIDNEY_L [8]: 1.3 g
KIDNEY_R [8]: 1.4 g
KIDNEY_TOTAL [8]: 2.7 g
LIVER [6]: 11.2 g
LIVER [7]: 14.1 g
LIVER [8]: 15.3 g
A/G [6]: 1.1
ALP [6]: 1665.2 IU/L
ALT [6]: 37.2 IU/L
AST [6]: 66.8 IU/L
BUN [6]: 16.8 mg/dL
CRE [6]: 0.1 mg/dL
Ca [6]: 10.6 mg/dL
Cl [6]: 107.4 meq/L
DBIL [6]: 0 mg/dL
GLC [6]: 189.8 mg/dL
IP [6]: 7.3 mg/dL
K [6]: 4.2 meq/L
LDH [6]: 146.2 IU/L
Na [6]: 141.8 meq/L
PL [6]: 139.4 mg/dL
RALB [6]: 3 g/dL
TBIL [6]: 0.002 mg/dL
TC [6]: 70.6 mg/dL
TG [6]: 103.2 mg/dL
TP [6]: 5.6 g/dL
gamma-GTP [6]: 2.2 IU/L
A/G [7]: 1.2
ALP [7]: 1412.8 IU/L
ALT [7]: 37.4 IU/L
AST [7]: 66.6 IU/L
BUN [7]: 18.2 mg/dL
CRE [7]: 0.2 mg/dL
Ca [7]: 10.4 mg/dL
Cl [7]: 107.4 meq/L
DBIL [7]: 0 mg/dL
GLC [7]: 199 mg/dL
IP [7]: 6.4 mg/dL
K [7]: 4.3 meq/L
LDH [7]: 135.6 IU/L
Na [7]: 141.6 meq/L
PL [7]: 134 mg/dL
RALB [7]: 3.1 g/dL
TBIL [7]: 0.006 mg/dL
TC [7]: 65.4 mg/dL
TG [7]: 121 mg/dL
TP [7]: 5.7 g/dL
gamma-GTP [7]: 2 IU/L
A/G [8]: 1.2
ALP [8]: 1019.8 IU/L
ALT [8]: 34.6 IU/L
AST [8]: 58.2 IU/L
BUN [8]: 19.2 mg/dL
CRE [8]: 0.2 mg/dL
Ca [8]: 10.8 mg/dL
Cl [8]: 106.8 meq/L
DBIL [8]: 0 mg/dL
GLC [8]: 191 mg/dL
IP [8]: 6.2 mg/dL
K [8]: 4 meq/L
LDH [8]: 115.8 IU/L
Na [8]: 142.8 meq/L
PL [8]: 142.4 mg/dL
RALB [8]: 3.2 g/dL
TBIL [8]: 0.008 mg/dL
TC [8]: 77.4 mg/dL
TG [8]: 136.4 mg/dL
TP [8]: 5.9 g/dL
gamma-GTP [8]: 1.6 IU/L
